Assay results from ChEMBL document CHEMBL1152211, “Structure-activity study at positions 3 and 4 of human neuropeptide S” (Bioorg Med Chem, 2008).
Where a name gives a salt, the structure may show the parent alone. Non-standard residues stand in square brackets, D forms with d. Residues, ends and D or L forms follow the SMILES beside them. *: point of attachment. Arg(NO2) = N=C(NCCC[C@H](N)C(=O)O)N[N+](=O)[O-]; hArg = N=C(N)NCCCC[C@H](N)C(=O)O; Orn = NCCC[C@H](N)C(=O)O; Nva = CCC[C@H](N)C(=O)O; Abu = CC[C@H](N)C(=O)O; Dap = NC[C@H](N)C(=O)O; Tfa = O=C(C(F)(F)F)*

Key:
Neuropeptide S receptor = biological target: T1, Neuropeptide S receptor (Mus musculus, UniProt Q8BZP8); experiment: Agonist activity at mouse NPSR expressed in HEK293 cells assessed as increase in intracellular calcium mobilization by FLIPR; format: functional, cell-based
T1 sequence (Q8BZP8 whole entry): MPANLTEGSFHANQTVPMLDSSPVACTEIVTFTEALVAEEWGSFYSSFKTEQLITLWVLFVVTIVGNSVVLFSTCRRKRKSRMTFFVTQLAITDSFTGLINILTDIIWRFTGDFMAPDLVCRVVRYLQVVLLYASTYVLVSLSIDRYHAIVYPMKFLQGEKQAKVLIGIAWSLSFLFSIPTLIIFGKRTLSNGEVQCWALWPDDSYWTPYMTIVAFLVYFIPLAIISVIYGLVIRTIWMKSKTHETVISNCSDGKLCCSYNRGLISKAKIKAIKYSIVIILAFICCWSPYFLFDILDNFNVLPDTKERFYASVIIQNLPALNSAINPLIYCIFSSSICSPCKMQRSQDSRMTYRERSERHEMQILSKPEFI

[1] = biological target: T2, Neuropeptide S receptor (Mus musculus) (UniProt Q8BZP8); experiment: Agonist activity at mouse NPSR expressed in HEK293 cells assessed as increase in intracellular calcium mobilization by FLIPR relative to baseline; format: functional, cell-based
T2 sequence (whole entry): T1 sequence (Q8BZP8 whole entry)

Compound | EC50 (Neuropeptide S receptor) [nM] | Emax [1] [%]
CSCC[C@H](NC(=O)CNC(=O)[C@@H](NC(=O)CNC(=O)[C@@H](NC(=O)CNC(=O)[C@H](CC(N)=O)NC(=O)[C@H](CCCN/C(N)=N/[N+](=O)[O-])NC(=O)[C@H](Cc1ccccc1)NC(=O)[C@@H](N)CO)C(C)C)[C@@H](C)O)C(=O)N[C@@H](CCCCN)C(=O)N[C@@H](CCCCN)C(=O)N[C@H](C(=O)N[C@@H](CO)C(=O)N[C@@H](Cc1ccccc1)C(=O)N[C@@H](CCC(N)=O)C(=O)N[C@@H](CCCNC(=N)N)C(=O)N[C@@H](C)C(=O)N[C@@H](CCCCN)C(=O)N[C@@H](CO)C(=O)O)[C@@H](C)O (H-SF[Arg(NO2)]NGVGTGMKKTSFQRAKS-OH) | 21.9 | 288
CC[C@H](NC(=O)[C@H](Cc1ccccc1)NC(=O)[C@@H](N)CO)C(=O)N[C@@H](CC(N)=O)C(=O)NCC(=O)N[C@H](C(=O)NCC(=O)N[C@H](C(=O)NCC(=O)N[C@@H](CCSC)C(=O)N[C@@H](CCCCN)C(=O)N[C@@H](CCCCN)C(=O)N[C@H](C(=O)N[C@@H](CO)C(=O)N[C@@H](Cc1ccccc1)C(=O)N[C@@H](CCC(N)=O)C(=O)N[C@@H](CCCNC(=N)N)C(=O)N[C@@H](C)C(=O)N[C@@H](CCCCN)C(=O)N[C@@H](CO)C(=O)O)[C@@H](C)O)[C@@H](C)O)C(C)C (H-SF[Abu]NGVGTGMKKTSFQRAKS-OH) | 513 | 218
H-SFRNGVGTGMKKTSFQRAKS-OH [NEUROPEPTIDE S] | 12 | 234
H-SFKNGVGTGMKKTSFQRAKS-OH | 18.2 | 290
CSCC[C@H](NC(=O)CNC(=O)[C@@H](NC(=O)CNC(=O)[C@@H](NC(=O)CNC(=O)[C@H](CC(N)=O)NC(=O)[C@H](CN)NC(=O)[C@H](Cc1ccccc1)NC(=O)[C@@H](N)CO)C(C)C)[C@@H](C)O)C(=O)N[C@@H](CCCCN)C(=O)N[C@@H](CCCCN)C(=O)N[C@H](C(=O)N[C@@H](CO)C(=O)N[C@@H](Cc1ccccc1)C(=O)N[C@@H](CCC(N)=O)C(=O)N[C@@H](CCCNC(=N)N)C(=O)N[C@@H](C)C(=O)N[C@@H](CCCCN)C(=O)N[C@@H](CO)C(=O)O)[C@@H](C)O (H-SF[Dap]NGVGTGMKKTSFQRAKS-OH) | 240 | 196
CSCC[C@H](NC(=O)CNC(=O)[C@@H](NC(=O)CNC(=O)[C@@H](NC(=O)CNC(=O)[C@H](CC(N)=O)NC(=O)[C@H](CCCN)NC(=O)[C@H](Cc1ccccc1)NC(=O)[C@@H](N)CO)C(C)C)[C@@H](C)O)C(=O)N[C@@H](CCCCN)C(=O)N[C@@H](CCCCN)C(=O)N[C@H](C(=O)N[C@@H](CO)C(=O)N[C@@H](Cc1ccccc1)C(=O)N[C@@H](CCC(N)=O)C(=O)N[C@@H](CCCNC(=N)N)C(=O)N[C@@H](C)C(=O)N[C@@H](CCCCN)C(=O)N[C@@H](CO)C(=O)O)[C@@H](C)O (H-SF[Orn]NGVGTGMKKTSFQRAKS-OH) | 31.6 | 318
H-SFGNGVGTGMKKTSFQRAKS-OH | 1260 | 264
H-SFQNGVGTGMKKTSFQRAKS-OH | 129 | 295

More lines, now with the values ahead:

EC50 (Neuropeptide S receptor) [nM] | Emax [1] [%] | Compound
135 | 207 | CCC[C@H](NC(=O)[C@H](Cc1ccccc1)NC(=O)[C@@H](N)CO)C(=O)N[C@@H](CC(N)=O)C(=O)NCC(=O)N[C@H](C(=O)NCC(=O)N[C@H](C(=O)NCC(=O)N[C@@H](CCSC)C(=O)N[C@@H](CCCCN)C(=O)N[C@@H](CCCCN)C(=O)N[C@H](C(=O)N[C@@H](CO)C(=O)N[C@@H](Cc1ccccc1)C(=O)N[C@@H](CCC(N)=O)C(=O)N[C@@H](CCCNC(=N)N)C(=O)N[C@@H](C)C(=O)N[C@@H](CCCCN)C(=O)N[C@@H](CO)C(=O)O)[C@@H](C)O)[C@@H](C)O)C(C)C (H-SF[Nva]NGVGTGMKKTSFQRAKS-OH)
562 | 210 | H-SFRQGVGTGMKKTSFQRAKS-OH
85.1 | 231 | CSCC[C@H](NC(=O)CNC(=O)[C@@H](NC(=O)CNC(=O)[C@@H](NC(=O)CNC(=O)[C@H](CC(N)=O)NC(=O)[C@H](CCCCNC(=O)C(F)(F)F)NC(=O)[C@H](Cc1ccccc1)NC(=O)[C@@H](N)CO)C(C)C)[C@@H](C)O)C(=O)N[C@@H](CCCCN)C(=O)N[C@@H](CCCCN)C(=O)N[C@H](C(=O)N[C@@H](CO)C(=O)N[C@@H](Cc1ccccc1)C(=O)N[C@@H](CCC(N)=O)C(=O)N[C@@H](CCCNC(=N)N)C(=O)N[C@@H](C)C(=O)N[C@@H](CCCCN)C(=O)N[C@@H](CO)C(=O)O)[C@@H](C)O (H-SFK(Tfa)NGVGTGMKKTSFQRAKS-OH)
10.7 | 288 | CSCC[C@H](NC(=O)CNC(=O)[C@@H](NC(=O)CNC(=O)[C@@H](NC(=O)CNC(=O)[C@H](CC(N)=O)NC(=O)[C@H](CCCCNC(=N)N)NC(=O)[C@H](Cc1ccccc1)NC(=O)[C@@H](N)CO)C(C)C)[C@@H](C)O)C(=O)N[C@@H](CCCCN)C(=O)N[C@@H](CCCCN)C(=O)N[C@H](C(=O)N[C@@H](CO)C(=O)N[C@@H](Cc1ccccc1)C(=O)N[C@@H](CCC(N)=O)C(=O)N[C@@H](CCCNC(=N)N)C(=O)N[C@@H](C)C(=O)N[C@@H](CCCCN)C(=O)N[C@@H](CO)C(=O)O)[C@@H](C)O (H-SF[hArg]NGVGTGMKKTSFQRAKS-OH)
1550 | 273 | H-SFHNGVGTGMKKTSFQRAKS-OH
